Source: PubChem BioAssay AID2060898 (Molecular Pharmacology Branch, DTP, NCI, 2025)

System: 616215-338-R-J1-PDC complex spheroid viability
Assay: Anticancer human tumor 616215-338-R-J1-PDC patient-derived colon adenocarcinoma cell line growth inhibition [RAS]
Settings: for IC50: curve of first compound; for viability, T/C: stronger effect = lower value; active = viability on the fitted dose curve at most 10% of control; inactive = the rest
Procedure, shortened: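 Agents were tested in combination matrices in half-log decrements from a top concentration at or near clinical Cmax (10 microM if undetermined). Targets were multi-cell spheroids of tumour lines plus HUVEC and MSC stromal cells.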
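Note: spheroids exposed to agents for seven days before viability readout.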
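Throughout, for viability, T/C: 100% = DMSO vehicle control viability.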

C=CC(=O)N1CCN(c2nc(OCC3CCCN3C)nc3c(F)c(-c4nc(N)cc(C)c4C(F)(F)F)c(Cl)cc23)C(C)C1 (centres undefined) + CCn1c(-c2cc(N3CCN(C)CC3)cnc2C(C)OC)c2c3cc(ccc31)-c1csc(n1)CC(NC(=O)C1CC1C)C(=O)N1CCCC(N1)C(=O)OCC(C)(C)C2
< 3.16 nM: IC50 (second compound 0.03 µM) | IC50 (second compound 0.0949 µM) | IC50 (second compound 0.3 µM)
inactive: viability, T/C (second compound 0.000949 µM, first compound 0.00316 µM) 117% | viability, T/C (second compound 0.000949 µM, first compound 0.01 µM) 103% | viability, T/C (second compound 0.000949 µM, first compound 0.0316 µM) 108% | viability, T/C (second compound 0.000949 µM, first compound 0.1 µM) 110% | viability, T/C (second compound 0.000949 µM, first compound 0.316 µM) 109% | viability, T/C (second compound 0.000949 µM, first compound 1 µM) 107% | viability, T/C (second compound 0.003 µM, first compound 0.00316 µM) 114% | viability, T/C (second compound 0.003 µM, first compound 0.01 µM) 109% | viability, T/C (second compound 0.003 µM, first compound 0.0316 µM) 111% | viability, T/C (second compound 0.003 µM, first compound 0.1 µM) 109% | viability, T/C (second compound 0.003 µM, first compound 0.316 µM) 113% | viability, T/C (second compound 0.003 µM, first compound 1 µM) 103% | viability, T/C (second compound 0.00949 µM, first compound 0.00316 µM) 87.8% | viability, T/C (second compound 0.00949 µM, first compound 0.01 µM) 77.8% | viability, T/C (second compound 0.00949 µM, first compound 0.0316 µM) 81.5% | viability, T/C (second compound 0.00949 µM, first compound 0.1 µM) 66.7% | viability, T/C (second compound 0.00949 µM, first compound 0.316 µM) 73.8% | viability, T/C (second compound 0.00949 µM, first compound 1 µM) 69.3% | viability, T/C (second compound 0.03 µM, first compound 0.00316 µM) 43% | viability, T/C (second compound 0.03 µM, first compound 0.01 µM) 55.5% | viability, T/C (second compound 0.03 µM, first compound 0.0316 µM) 49.3% | viability, T/C (second compound 0.03 µM, first compound 0.1 µM) 42.7% | viability, T/C (second compound 0.03 µM, first compound 0.316 µM) 55.4% | viability, T/C (second compound 0.03 µM, first compound 1 µM) 49.4% | viability, T/C (second compound 0.0949 µM, first compound 0.00316 µM) 35% | viability, T/C (second compound 0.0949 µM, first compound 0.01 µM) 30.8% | viability, T/C (second compound 0.0949 µM, first compound 0.0316 µM) 42.2% | viability, T/C (second compound 0.0949 µM, first compound 0.1 µM) 37.5% | viability, T/C (second compound 0.0949 µM, first compound 0.316 µM) 49.4% | viability, T/C (second compound 0.0949 µM, first compound 1 µM) 35.9% | viability, T/C (second compound 0.3 µM, first compound 0.00316 µM) 40.3% | viability, T/C (second compound 0.3 µM, first compound 0.01 µM) 31.8% | viability, T/C (second compound 0.3 µM, first compound 0.0316 µM) 36% | viability, T/C (second compound 0.3 µM, first compound 0.1 µM) 42.6% | viability, T/C (second compound 0.3 µM, first compound 0.316 µM) 42.8% | viability, T/C (second compound 0.3 µM, first compound 1 µM) 43.4%
> 1000 nM: IC50 (second compound 0.000949 µM) | IC50 (second compound 0.003 µM) | IC50 (second compound 0.00949 µM)

CC1(C)CCC(Nc2ncc(C(F)(F)F)c(-c3c[nH]c4c(P(C)(C)=O)c(C#N)ccc34)n2)CN1 (centres undefined) + CCn1c(-c2cc(N3CCN(C)CC3)cnc2C(C)OC)c2c3cc(ccc31)-c1csc(n1)CC(NC(=O)C1CC1C)C(=O)N1CCCC(N1)C(=O)OCC(C)(C)C2
17.7 nM: IC50 (second compound 0.000949 µM)
< 0.949 nM: IC50 (second compound 0.0949 µM) | IC50 (second compound 0.3 µM)
inactive: viability, T/C (second compound 0.000949 µM, first compound 0.000949 µM) 117% | viability, T/C (second compound 0.000949 µM, first compound 0.003 µM) 92.4% | viability, T/C (second compound 0.000949 µM, first compound 0.00949 µM) 65.2% | viability, T/C (second compound 0.000949 µM, first compound 0.03 µM) 35.7% | viability, T/C (second compound 0.000949 µM, first compound 0.0949 µM) 32.2% | viability, T/C (second compound 0.000949 µM, first compound 0.3 µM) 39.1% | viability, T/C (second compound 0.003 µM, first compound 0.000949 µM) 122% | viability, T/C (second compound 0.003 µM, first compound 0.003 µM) 98.1% | viability, T/C (second compound 0.003 µM, first compound 0.00949 µM) 56.4% | viability, T/C (second compound 0.003 µM, first compound 0.03 µM) 37% | viability, T/C (second compound 0.003 µM, first compound 0.0949 µM) 37.5% | viability, T/C (second compound 0.003 µM, first compound 0.3 µM) 39.6% | viability, T/C (second compound 0.00949 µM, first compound 0.000949 µM) 82.9% | viability, T/C (second compound 0.00949 µM, first compound 0.003 µM) 73.8% | viability, T/C (second compound 0.00949 µM, first compound 0.00949 µM) 44.6% | viability, T/C (second compound 0.00949 µM, first compound 0.03 µM) 38.6% | viability, T/C (second compound 0.00949 µM, first compound 0.0949 µM) 37.1% | viability, T/C (second compound 0.00949 µM, first compound 0.3 µM) 40.8% | viability, T/C (second compound 0.03 µM, first compound 0.000949 µM) 65.7% | viability, T/C (second compound 0.03 µM, first compound 0.003 µM) 61.7% | viability, T/C (second compound 0.03 µM, first compound 0.00949 µM) 47.6% | viability, T/C (second compound 0.03 µM, first compound 0.03 µM) 32.4% | viability, T/C (second compound 0.03 µM, first compound 0.0949 µM) 39% | viability, T/C (second compound 0.03 µM, first compound 0.3 µM) 40.1% | viability, T/C (second compound 0.0949 µM, first compound 0.000949 µM) 45.8% | viability, T/C (second compound 0.0949 µM, first compound 0.003 µM) 44.3% | viability, T/C (second compound 0.0949 µM, first compound 0.00949 µM) 39.2% | viability, T/C (second compound 0.0949 µM, first compound 0.03 µM) 39.3% | viability, T/C (second compound 0.0949 µM, first compound 0.0949 µM) 36.9% | viability, T/C (second compound 0.0949 µM, first compound 0.3 µM) 32.9% | viability, T/C (second compound 0.3 µM, first compound 0.000949 µM) 37.5% | viability, T/C (second compound 0.3 µM, first compound 0.003 µM) 46% | viability, T/C (second compound 0.3 µM, first compound 0.00949 µM) 42% | viability, T/C (second compound 0.3 µM, first compound 0.03 µM) 32.6% | viability, T/C (second compound 0.3 µM, first compound 0.0949 µM) 38.5% | viability, T/C (second compound 0.3 µM, first compound 0.3 µM) 39.2%
7.66 nM: IC50 (second compound 0.00949 µM)
7.94 nM: IC50 (second compound 0.03 µM)
14.1 nM: IC50 (second compound 0.003 µM)
